Results taken from patent publication US10364234B2, “Pyridinecarboxamide derivatives, preparation method thereof and pharmaceutical uses thereof” (Jiangsu Hengrui Medicine Co., Ltd., priority 2014, dated 2019).

Columns and labels:
SD rats = assay: Diuretic efficacy of ROMK inhibitors in SD rats; format: in vivo, rat; settings: for urinary sodium excretion increase compared with blank control group / urinary potassium compared with normal control group: 4 h; for urine output increase compared with blank control group: total urine in 4 h; for urinary potassium compared with normal control group / serum potassium change / serum sodium change: 0.03 and 0.1 mg/kg i.g. once; for serum potassium change / serum sodium change: P>0.05
Procedure: The diuretic efficacy of compound 1 and positive control drug of ROMK inhibitor on SD rats was evaluated.
Male SD rats were purchased from SINO-BRITSH SIPPR/BK LAB. ANIMAL LTD., CO (Shanghai, China, Certificate No. 2008001647752, License SCXK (Shanghai) 2013-0016). The rats were 120-130 g, and fed at 5/cage, in a 12/12 hours light/dark cycle regulation, at a constant temperature of 23±1° C., humidity of 50˜60%, and free access to water and food. The male SD rats were acclimated to this condition for 7 days before their use in the diuresis experiment.
The experiment was carried out according to the method disclosed in PCT Patent Application Publication WO2010129379A1 After adaptive feeding, the rats were placed in metabolism cages and fasted overnight. The rats were weighed and randomly divided into the following groups: blank control group, compound 1 tested drug 0.03 mg/kg group and 0.1 mg/kg group, and the positive control group 0.03 mg/kg and group 0.1 mg/kg, with 10 rats for each group. Each rat was intragastrically administered each compound (ig, 1 ml/kg). The rats in the blank control group were fed with the corresponding solvent. After intragastric administration, the rats were placed in the normal cage. After 30 min, 25 ml/kg normal saline was given. Rats were put into the metabolic cages, and fasting for food and water began immediately. The total urine volume in 4 h was collected and measured. The urinary sodium and urinary potassium excretion in 4 h were also measured. The orbital serum was collected after the collection of urine to test the serum sodium and serum potassium concentrations.
The experimental data were expressed as mean±standard deviation (S.D.). The data was statistically compared using the t test of excel.

ROMK potassium channel = ROMK potassium channel (Homo sapiens (Human), UniProt P48048); assay: Electrophysiological manual patch clamp on ROMK potassium channel (human ROMK/HEK293 cells); format: cell-based
Source text: The experiment was designed to test the effect of compounds on ROMK potassium channel in HEK 293 in vitro. ROMK potassium channel is stably expressed on the HEK293 cells of the present application. After the potassium ion current was stabilized, the effect of the present compound on the potassium channel was obtained by comparing the potassium current obtained before and after the use of the present compound at different concentrations.
(2) Human ROMK/HEK293 cell: HEK293 cell line stably expressing the ROMK channel transfected by human ROMK cDNA (NCBI SEQ ID NO. NM-000220.4);
(3) Extracellular fluid (mM): NaCl, 137; KCl, 4; CaCl2, 1.8; MgCl2, 1; HEPES, 10; glucose, 10; pH 7.4 (NaOH titration); and
(4) Intracellular fluid (mM): K Aspartate, 130; MgCl2, 5; EGTA 5; HEPES, 10; Tris-ATP, 4; pH 7.2 (KOH titration).
Test compounds were dissolved in dimethyl sulfoxide (DMSO) and then stocked at room temperature. […]
A manual patch clamp system was used for whole-cell current record in this experiment. […] After the ROMK potassium current recorded in the above steps was stabilized under continuous perfusion with extracellular liquid in the recording bath, the drug to be tested was perfused until the inhibition of the drug on the ROMK current reached a steady state. […]
The data were analyzed by HEKA Patchmaster, XLFit and Graphpad Prism data analysis software.

[1] = Pharmacokinetics assay in SD rats, intragastric administration; format: in vivo; settings: both sexes, Sprague-Dawley, rat, plasma, oral 5 mg/kg
Procedure: Rats were used as test animals. The drug concentration in plasma at different time points was determined by LC/MS/MS after administration of the compounds to rats. The pharmacokinetic behavior of the present compounds was studied and evaluated in rats.
Four (4) healthy adult Sprague-Dawley (SD) rats, half male and half female, were purchased from SINO-BRITSH SIPPR/BK LAB. ANIMAL LTD., CO, with Certificate No.: SCXK (Shanghai) 2008-0016.
The appropriate amount of the test compounds was weighed, and added with 0.5% CMC-Na to a final volume to prepare a 0.5 mg/mL suspension by ultrasonication.
Following fasting overnight, 4 SD rats, half male and half female were administered intragastrically a dose of 5.0 mg/kg and an administration volume of 10 mL/kg.
Blood (0.1 mL) was sampled from orbital sinus before administration and 0.5 h, 1.0 h, 2.0 h, 4.0 h, 6.0 h, 8.0 h, 11.0 h, and 24.0 h after administration. The samples were stored in EDTA anticoagulation tubes, and centrifuged for 10 minutes at 3,500 rpm to separate the blood plasma. The plasma samples were stored at −20° C. The rats were fed 2 hours after administration.
The plasma concentration of the test compounds in rats after intragastric administration was determined by LC-MS/MS. Plasma samples were analyzed after pretreatment by protein precipitation.

human ROMK channel = human ROMK channel (Homo sapiens (Human), UniProt P48048); assay: FluxOR potassium ion channel assay, human ROMK/HEK293 cells; format: cell-based
Procedure: (§1) The method described hereafter was used for determining the inhibitory activity of the present compounds on human ROMK and rat ROMK channels.
(1) FluxOR™ potassium ion channel assay (F10016, Invitrogen)
(3) FlexStation3 microplate reader (Molecular Devices)
(4) Human ROMK/HEK293 cell: HEK293 cell line stably expressing the ROMK channel transfected by human ROMK cDNA (NCBI SEQ ID NO. NM-000220.4)
(§2) The inhibitory activity of the present compounds on human ROMK or rat ROMK channel was tested by the assay described above.

rat ROMK channel = rat ROMK channel (Rattus norvegicus (Rat), UniProt P35560); assay: FluxOR potassium ion channel assay, rat ROMK/HEK293 cells; format: cell-based
Source text: as §1
(5) Rat ROMK/HEK293 cell: HEK293 cell line transfected by rat ROMK cDNA (NCBI SEQ ID NO. NM-017023.1) stably expressing the ROMK channel
The above procedures were repeated, except for replacing human ROMK/HEK293 cells with rat ROMK/HEK 293 cells, to determine the inhibition IC50 of the present compounds on rat ROMK channel.
as §2

[2] = Solubility observed when preparing the dosing formulation; format: physicochemical; settings: preparation of dosing formulation for the diuresis experiment
Source text: In this experiment, the solubility of the test compound 1 was very good. There was no delamination phenomenon. […] After fully grinding, the solubility improved. […] Moreover, the effect was dose-dependent for each dose of the test compound 1 and the positive control drug.

human ROMK channel, sequence (P48048 whole entry): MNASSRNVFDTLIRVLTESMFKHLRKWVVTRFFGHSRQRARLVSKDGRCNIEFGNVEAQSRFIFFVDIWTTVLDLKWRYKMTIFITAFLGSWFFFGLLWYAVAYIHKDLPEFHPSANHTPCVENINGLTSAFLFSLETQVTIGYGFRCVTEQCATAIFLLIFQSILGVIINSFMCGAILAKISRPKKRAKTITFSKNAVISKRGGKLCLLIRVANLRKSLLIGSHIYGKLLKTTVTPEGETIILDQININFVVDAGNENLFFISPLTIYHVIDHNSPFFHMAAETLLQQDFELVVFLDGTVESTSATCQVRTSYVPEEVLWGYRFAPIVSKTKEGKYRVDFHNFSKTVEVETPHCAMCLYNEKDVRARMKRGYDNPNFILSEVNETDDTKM
rat ROMK channel, sequence (P35560 whole entry): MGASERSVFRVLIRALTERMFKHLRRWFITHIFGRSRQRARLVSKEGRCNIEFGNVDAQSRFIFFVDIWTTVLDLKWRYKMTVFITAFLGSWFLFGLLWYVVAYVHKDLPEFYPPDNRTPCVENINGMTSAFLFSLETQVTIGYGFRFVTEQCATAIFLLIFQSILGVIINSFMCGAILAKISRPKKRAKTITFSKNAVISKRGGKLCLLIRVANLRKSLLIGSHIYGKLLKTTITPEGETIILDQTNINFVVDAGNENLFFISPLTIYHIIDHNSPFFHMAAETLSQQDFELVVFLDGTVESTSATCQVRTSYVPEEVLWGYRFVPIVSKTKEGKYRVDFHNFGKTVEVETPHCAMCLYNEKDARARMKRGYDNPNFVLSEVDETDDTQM
ROMK potassium channel, sequence (P48048 whole entry): as the sequence (P48048 whole entry) above

Compound | urinary sodium excretion increase compared with blank control group (SD rats; 0.03 mg/kg i.g. once) [times] | urine output increase compared with blank control group (SD rats; 0.03 mg/kg i.g. once) [times] | urinary sodium excretion increase compared with blank control group (SD rats; 0.1 mg/kg i.g. once) [times] | urine output increase compared with blank control group (SD rats; 0.1 mg/kg i.g. once) [times] | urinary potassium compared with normal control group (SD rats) | serum potassium change (SD rats) | serum sodium change (SD rats) | IC50 (ROMK potassium channel) [nM] | Vd/F ([1]; read-out: Apparent Distribution Volume Vz/F) [L/kg] | AUC ([1]; read-out: Area Under Curve AUC) [ng·h/mL] | CL/F ([1]; read-out: Clearance CLz/F) [mL/min/kg] | MRT ([1]; read-out: Mean Residence Time MRT) [h] | Cmax ([1]; read-out: Plasma Conc. Cmax) [ng/mL] | IC50 (human ROMK channel) [nM] | IC50 (rat ROMK channel) [nM] | solubility (in words) [2]
COc1cc(C(=O)NC2CCN(C[C@H](O)c3ccc4c(c3C)COC4=O)CC2)ncc1C#N [Example 1, (R)-5-cyano-N-(1-(2-hydroxy-2-(4-methyl-1-oxo-1,3-dihydroisobenzofuran-5-yl)ethyl)piperidin-4-yl)-4-methoxypicolinamide] | 3.12 | 2.76 | 3.31 | 3.22 | slightly elevated, but not statistically significant | changed a little | changed a little | 18.7 | 3.02 ± 0.841 | 9280 ± 3050 | 9.82 ± 3.5 | 5.51 ± 0.75 | 1330 ± 388 | 40 | 192 | very good
CCOc1cc(C(=O)NC2CCN(C[C@H](O)c3ccc4c(c3C)COC4=O)CC2)ncc1C#N [Example 2, (R)-5-cyano-4-ethoxy-N-(1-(2-hydroxy-2-(4-methyl-1-oxo-1,3-dihydroisobenzofuran-5-yl)ethyl)piperidin-4-yl)picolinamide] | – | – | – | – | – | – | – | – | – | – | – | – | – | 28 | 89 | –
Cc1cc(C(=O)NC2CCN(C[C@H](O)c3ccc4c(c3C)COC4=O)CC2)ncc1C#N [positive control drug, reference compound] | 1.57 | 1.41 | 1.65 | 1.46 | slightly elevated, but not statistically significant | changed a little | changed a little | – | – | – | – | – | – | – | – | poor solubility
